Entries after “also recorded” stand apart in the source; their conditions may differ. Read-outs that look alike come from different tables or passages of the source.
Assays:
[1] = system: PKM2; assay: EGF-induced nuclear translocation of PKM2 (cell fractionation, immunoblotting, immunofluorescence); assay type: cell-based, human
Description: Immunoblotting analyses (b, b) were performed with the indicated antibodies. Nuclear PCNA and cytoplasmic tubulin were used as controls. a: The indicated cells were immunostained with an anti-PKM2 antibody.
Immunoblotting and immunoprecipitation analyses were performed with the indicated antibodies. a: Nuclear fractions were prepared from U87/EGFR cells pretreated with LY290042 (30 μM), SU6656 (4 μM), SP600125 (25 μM), and U0126 (20 μM) for 30 min before EGF (100 ng/mL) for 6 h. Nuclear PCNA and cytoplasmic tubulin were used as controls. b: U87/EGFR cells were pretreated with or without U0126 (20 μM) for 30 min before EGF (100 ng/mL) for 6 h. Immunofluorescence analyses were performed with the indicated antibodies. Nuclei were stained with Hoechst 33342 (blue). c: U251 cells were stably transfected with a vector with or without expressing FLAG-ERK2 K52R (left panel) or transiently transfected with vectors expressing MEK1 Q56P and indicated FLAG-tagged ERK2 proteins (right panel). The cells were treated with or without EGF (100 ng/mL) for 6 h, and the total cell lysates and nuclear fractions were prepared. d: FLAG-PKM2 or FLAG-PKM1 was immunoprecipitated with an anti-FLAG antibody from U87/EGFR cells treated with or without EGF (100 ng/mL) for 30 min. e: Bacterially-purified GST-ERK2 immobilized on glutathione agarose beads was mixed with or without purified His-PKM2. GST pull-down analyses were performed. Ten percent of total His-PKM2 was used as an input. f: U87/EGFR cells transfected with vectors expressing the indicated FLAG-tagged ERK proteins were treated with or without EGF (100 ng/mL) for 30 min. g: U87/EGFR cells expressing the indicated FLAG-PKM2 proteins were treated with or without EGF (100 ng/mL) for 30 min.
(§1) Immunofluorescence analyses of endogenous PKM2 or transiently expressed FLAG-PKM1 were performed with the indicated antibodies. […] Immunoblotting analyses were performed with the indicated antibodies. Nuclear PCNA was used as controls for immunoblotting analyses. c: An equal volume of cytosolic and nuclear fractions were prepared from U87/EGFR cells treated with or without EGF (100 ng/mL) for 6 h. Ten microliters of protein from cytosolic and nuclear fractions were used for immunoblotting analyses with the indicated antibodies. d: Nuclear fractions were prepared from U251 cells pretreated with LY290042 (30 μM), SU6656 (4 μM), SP600125 (25 μM), and U0126 (20 μM) for 30 min before EGF (100 ng/mL) for 6 h. Immunoblotting analyses were performed with the indicated antibodies. Nuclear PCNA and cytoplasmic tubulin were used as controls. e: U87/EGFR cells were pretreated with LY290042 (30 μM), SU6656 (4 μM), SP600125 (25 μM), and U0126 (20 μM) for 30 min before EGF (100 ng/mL) for 6 h. Immunoblotting analyses were performed with the indicated antibodies.
Cytosolic and nuclear fractions were prepared. Immunoblotting analyses were performed with the indicated antibodies. b: U87/EGFR cells with depleted endogenous PKM2 and reconstituted expression of RNAi-resistant WT rPKM2 or rPKM2 S37A were treated with or without EGF (100 ng/mL) for 6 h. Total cell lysates (left panel) and nuclear fractions (right panel) were prepared.

[2] = system: AKT; assay: EGF-induced AKT phosphorylation, immunoblotting; assay type: cell-based, human; settings: U87/EGFR cells; LY290042 30 μM or AKT inhibitor 10 μM 30 min before EGF
Description: Immunofluorescence analyses of endogenous PKM2 or transiently expressed FLAG-PKM1 were performed with the indicated antibodies. […] Immunoblotting analyses were performed with the indicated antibodies. […] Immunoblotting analyses were performed with the indicated antibodies. […] Immunoblotting analyses were performed with the indicated antibodies.
FIG. 63: PKC, NF-κB, PI3-K, and CK2 are inhibited by their inhibitors. A, B: U87/EGFR cells were treated with Bis-I (2 μM) (A) or Go6976 (2 μM) (B) for 30 min before 12-O-tetradecanoylphorbol-13-acetate (TPA) ([…]) for 8 h. Immunoblotting analyses were performed with the indicated antibodies. C: U87/EGFR cells transiently expressing a luciferase reporter vector containing the IκBα promoter were pretreated with or without NF-κB activation inhibitor II (7 μM) for 30 min before TNFα (10 ng/mL) for 8 h. The relative levels of luciferase activity were normalized to the levels of untreated cells and to the levels of luciferase activity of the Renilla control plasmid. Data represent the mean±standard deviation of three independent experiments. […] Immunoblotting analyses were performed with the indicated antibodies.

[3] = system: U87/EGFRvIII cells; assay: Intracranial U87/EGFRvIII xenograft, intratumoral SU6656; assay type: in vivo, athymic nude mice
Description: FIG. 19: c-Src inhibition suppresses tumorigenesis and reduces β-catenin Y333 phosphorylation and cyclin D1 expression in tumor tissues. a: U87/EGFRvIII (5×10^5) cells were intracranially injected into athymic nude mice. After 5 d, seven mice were sacrificed to examine tumor growth; the remaining mice, whose tumors were intracranially injected with SU6656 (0.015 mg/kg in 5 μL of DMSO) or DMSO every three days, were sacrificed at day 15. […] C: Immunoblotting analyses of the indicated tumor tissues were performed with the indicated antibodies.
GBM cells (5×10^5) were intracranially injected (in 5 μL of DMEM per mouse), with or without regulation of β-catenin or PKM2 expression, into 4-week-old female athymic nude mice. The intracranial injections were performed, as described in a previous publication (Gomez-Manzano et al., 2006). Seven mice per group in each experiment were included. Animals injected with U87/EGFRvIII or GSC 11 cells were sacrificed 2 weeks or 30 days after glioma cell injection, respectively. The brain of each mouse was harvested, fixed in 4% formaldehyde, and embedded in paraffin. Tumor formation and phenotype were determined by histologic analysis of H & E-stained sections.
For doxycycline induction studies, seven mice were sacrificed 14 days after GBM cell injection to examine tumor growth, whereas the remaining 14 mice in two groups were fed with or without water containing 800 μg/mL doxycycline. The water containing doxycycline was changed every three days. The mice in these two groups were sacrificed at day 30. For the SU6656 treatment studies, seven mice were sacrificed five days after U87/EGFRvIII cell injection to examine tumor growth, whereas the remaining 14 mice in two groups were treated with either DMSO or SU6656. SU6656 (0.015 mg/kg in 5 μL of DMSO) was intracranially injected into the tumor every three days, and the mice in both groups were sacrificed at day 14 after GBM cell injection.

[4] = molecular target: c-Src (Homo sapiens, UniProt P12931); assay: EGF-induced c-Src activation (Y418 phosphorylation), immunoblotting; assay type: cell-based; settings: U87/EGFR cells; SU6656 4 μM 30 min before EGF 100 ng/mL 6 h
Chain of c-Src (P12931 whole entry): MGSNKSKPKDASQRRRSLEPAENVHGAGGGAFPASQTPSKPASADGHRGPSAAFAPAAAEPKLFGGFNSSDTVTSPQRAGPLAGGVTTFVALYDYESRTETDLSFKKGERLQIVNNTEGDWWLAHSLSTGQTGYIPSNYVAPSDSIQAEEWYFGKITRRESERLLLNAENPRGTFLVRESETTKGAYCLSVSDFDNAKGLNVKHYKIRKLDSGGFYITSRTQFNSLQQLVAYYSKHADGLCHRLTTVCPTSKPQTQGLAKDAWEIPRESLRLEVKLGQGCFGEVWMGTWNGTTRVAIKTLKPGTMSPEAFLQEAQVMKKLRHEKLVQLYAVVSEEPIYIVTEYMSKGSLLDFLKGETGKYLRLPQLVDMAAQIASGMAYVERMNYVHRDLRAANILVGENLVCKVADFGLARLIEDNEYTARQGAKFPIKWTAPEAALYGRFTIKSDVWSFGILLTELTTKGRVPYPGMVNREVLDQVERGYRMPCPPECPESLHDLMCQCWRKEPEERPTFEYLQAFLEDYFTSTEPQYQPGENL
Description: as §1
(§2) Extraction of proteins with a modified buffer from cultured cells was followed by immunoprecipitation and immunoblotting with corresponding antibodies, as described previously (Lu et al., 1998).

[5] = system: β-catenin; assay: EGF-induced β-catenin Tyr/Y333 phosphorylation, immunoprecipitation and immunoblotting; assay type: cell-based, human
Description: FIG. 2: c-Src phosphorylates β-catenin at Y333 upon EGFR activation. a: U87/EGFR cells were treated with SU6656 (4 μM) or an Abl inhibitor (0.2 μM) for 30 min before EGF treatment for 6 h. b: The indicated cells were treated with or without EGF for 6 h. c: β-catenin was immunoprecipitated from the nuclear fractions of U87/EGFR cells treated with or without EGF for 6 h. d, g: U87/EGFR cells transiently expressing the indicated FLAG-tagged β-catenin proteins were treated with or without EGF for 6 h. e: In vitro kinase assays were performed with purified active c-Src and purified β-catenin proteins. f: Immobilized GST-β-catenin proteins were mixed with purified His-PKM2 proteins in the presence or absence of active c-Src.
(§3) FIG. 16: EGF induces the nuclear translocation of PKM2, c-Src-dependent […] Y333 phosphorylation, and a c-Src-dependent interaction between PKM2 and β-catenin in primary GBM cells. […] Nuclear PCNA and cytoplasmic tubulin were used as controls.

[6] = system: PKM2-β-catenin interaction; assay: EGF-induced association of β-catenin with PKM2 in primary GBM cells (co-IP); assay type: cell-based; settings: GSC11 and GSC23 human primary GBM cells; SU6656 4 μM 30 min before EGF 100 ng/mL 6 h
Source text: as §3

[7] = system: ERK1/2; assay: EGF-induced ERK1/2 phosphorylation, immunoblotting; assay type: cell-based, human; settings: U87/EGFR cells; AG1478 1 μM or U0126 20 μM 30 min before EGF 6 h
Description: as §1, §2

[8] = system: PKM2 S37; settings: U87/EGFR cells; U0126 20 μM 30 min before EGF 100 ng/mL 30 min
Description: FIG. 43: ERK2 phosphorylates PKM2 S37. […] Immunofluorescence analyses were performed with an anti-FLAG antibody (f). Nuclei were stained with Hoechst 33342 (blue).
as §2

[9] = system: PKM2; settings: U87 cells; U0126 20 μM 30 min before PDGF-AA 50 ng/mL 6 h
Description: (§4) Nuclear PCNA. Immunoblotting analyses were performed with the indicated antibodies. b: U87 cells were cultured in no-serum DMEM and treated with or without U0126 (20 μM) for 30 min before PDGF-AA (50 ng/mL) for 20 h. The media were collected for analysis of glucose consumption (left panel) or lactate production (right panel). Data represent the mean±SD of three independent experiments.

[10] = system: U87 cells; settings: no-serum DMEM, U0126 20 μM 30 min before PDGF-AA 50 ng/mL 20 h
Description: as §4
Cells were seeded in culture dishes, and the medium was changed after 6 h with no-serum DMEM. Cells were incubated for 12-16 h, and the culture medium was then collected for measurement of glucose and lactate concentrations. Glucose levels were determined using a glucose (GO) assay kit (Sigma). Glucose consumption was the difference in glucose concentration compared with DMEM. Lactate levels were determined using a lactate assay kit (Eton Bioscience, San Diego, Calif.).

[11] = system: PIN1-PKM2 binding; settings: U0126 20 μM 30 min before EGF 30 min
Description: Immunoprecipitation and immunoblotting analyses were performed with the indicated antibodies. a: His-PIN1 immobilized on nickel agarose beads was incubated with lysate of U87/EGFR cells treated with or without U0126 (20 μM) for 30 min before EGF (100 ng/mL) stimulation for 30 min. b: U87/EGFR cells transiently expressing WT FLAG-PKM2 or FLAG-PKM2 S37A were treated with or without EGF (100 ng/mL) for 30 min. […] Data represent the mean±SD of three independent experiments. g: PIN1^−/− cells were reconstituted to express the indicated PIN1 proteins (left panel). The total cell lysates and nuclear fractions were prepared from the indicated cells treated with or without EGF (100 ng/mL) for 6 h (right panel). h: Total cell lysates and nuclear fractions of PIN1^−/− cells or PIN^−/− cells expressing FLAG-PKM2 S37D were prepared.
as §2

[12] = U87/EGFR (and U251) cells, 30 min pretreatment before EGF 100 ng/mL, LY290042 30 μM, SU6656 4 μM, SP600125 25 μM, U0126 20 μM, AG1478 1 μM, cycloheximide 100 μg/mL
[13] = SU6656 0.015 mg/kg intratumoral every three days

| Compound | EGF-induced nuclear accumulation/translocation of PKM2 [1, 12] | EGF-induced phosphorylation of AKT [2] | tumor growth ([3]; SU6656 0.015 mg/kg in 5 μL DMSO intratumoral every three days vs DMSO) | cyclin D1 expression in tumor tissue [3, 13] | phosphorylation level of c-Src Y418 in tumor tissue [3, 13] | phosphorylation level of β-catenin Y333 in tumor tissue [3, 13] | EGF-induced activation/phosphorylation of c-Src (Y418) [4] | EGF-induced phosphorylation of β-catenin Y333 ([5]; GSC11 and GSC23 human primary GBM cells, SU6656 4 μM 30 min before EGF 100 ng/mL 6 h) | EGF-induced Tyr phosphorylation of β-catenin ([5]; U87/EGFR cells, SU6656 4 μM or Abl inhibitor 0.2 μM 30 min before EGF 6 h) | EGF-induced association of β-catenin with PKM2 [6] | EGF-induced phosphorylation of ERK1/2 [7] | EGF-induced PKM2 S37 phosphorylation [8] | PDGF-induced nuclear translocation of PKM2 [9] | PDGF-induced glucose uptake [10] | PDGF-induced lactate production [10] | EGF-increased binding of endogenous PIN1 to endogenous PKM2 (co-immunoprecipitation) ([11]; U87/EGFR cells) | EGF-induced binding of endogenous PKM2 to His-PIN1 ([11]; lysate of U87/EGFR cells) | EGF-induced nuclear accumulation/translocation of PKM2 [1] |
| --- | --- | --- | --- | --- | --- | --- | --- | --- | --- | --- | --- | --- | --- | --- | --- | --- | --- | --- |
| O=c1cc(N2CCOCC2)oc2c(-c3ccccc3)cccc12 [LY290042] | only inhibition of MEK/ERK abrogated | blocked |  |  |  |  |  |  |  |  |  |  |  |  |  |  |  |  |
| CN(C)S(=O)(=O)c1ccc2c(c1)/C(=C/c1cc3c([nH]1)CCCC3)C(=O)N2 [SU6656] | only inhibition of MEK/ERK abrogated |  | significantly blocked tumor growth | inhibited | reduced | reduced | completely abrogated; also recorded: blocked | blocked | blocked | blocked |  |  |  |  |  |  |  |  |
| N#CC(=C(/N)Sc1ccccc1N)/C(C#N)=C(\N)Sc1ccccc1N [U0126] |  |  |  |  |  |  |  |  |  |  | blocked | blocked | blocked | blocked | blocked | blocked | abrogated | abrogated; also recorded: blocked |

— patent publication US20150073033A1, “BIOMARKERS FOR CANCER CHARACTERIZATION AND TREATMENT” (Board of Regents, The University of Texas System, priority 2011, published 2015)
